Assay results taken from the supplement of paper PMC11208160.

Assay: recombinant barcode read abundance after kanamycin selection (control-corrected) (log10(CPM+1)); higher = more efficient recombination; sequences stand for … in AGTGCAGAGAAAATCGGCCAGTTTTCTCTGCCTGCAGTCCGCATGCCGT…AGATTTATGCAGCGGACTGCCTTTCTCCCAAAGTGATAAACCGGACAGTATCATGGACCGGTTTTCCCGGTAATCCGTATTTGCAAGGTTGGTTTCACT; site = the 11-nt target
How it was run: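 IS621 bridge RNA target-binding loops were paired with targets in a pooled library tested in E. coli. After co-electroporation with a donor plasmid, cells were plated in two replicates on chloramphenicol/ampicillin LB agar (control) and on chloramphenicol/ampicillin/kanamycin carrying 0.1 mM IPTG. Barcodes at recombinant junctions were counted as counts per million, averaged and control-corrected to give recombination efficiency. Values are log10(CPM+1).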
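Further: IS621 recombinase and bridge RNA in Escherichia coli cells.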

Sequence | recombinant barcode read abundance (log10)
ATCAGGTCTTGGGTTCTAACCTGTTGCCT (site AACAGGTCTAG) | 0.299
ATCAGGTCTTGGGTTCTAACCTGTTGCCT (site ACCAGGTCTAG) | 0.18
ATCAGGTCTTGGGTTCTAACCTGTTGCCT (site AGCAGGTCTAG) | 0.107
ATCAGGTCTTGGGTTCTAACCTGTTGCCT (site ATCAGGTCTAG) | 0.431
ATCAGTACTTGGGTTCTAACCTGTTGCCT (site ATCAGTACTAG) | 0.307
ATCAGTACTTGGGTTCTAACCTGTTGCCT (site CTGAGTACTAG) | 0.242
ATCCAGGCTTGGGTTCTAACCTGTTGCGG (site ATCCAGGCTCC) | 2.07
ATCCAGGCTTGGGTTCTAACCTGTTGCGG (site ATTCAGACTCC) | 0.00907
ATCGGAGCTTGGGTTCTAACCTGTTGCTG (site ATCGGAGCTCA) | 0.991
ATCGGAGCTTGGGTTCTAACCTGTTGCTG (site ATCGGAGCTCC) | 0.67
ATCGGAGCTTGGGTTCTAACCTGTTGCTG (site ATCGGAGCTCG) | 0.455
ATCGGAGCTTGGGTTCTAACCTGTTGCTG (site ATCGGAGCTCT) | 0.627
ATCGGATCTTGGGTTCTAACCTGTTGCCG (site ATCGGATCTCG) | 0.782
ATCGGATCTTGGGTTCTAACCTGTTGCCG (site CATAACCCTAT) | 0.349
ATCGGGCCTTGGGTTCTAACCTGTTGCCT (site ATCGGGCCTAG) | 0.47
ATCGGGCCTTGGGTTCTAACCTGTTGCCT (site CTCGGGCCTAG) | 0.0724
ATCGGGCCTTGGGTTCTAACCTGTTGCCT (site GTCGGGCCTAG) | 0.582
ATCGGGCCTTGGGTTCTAACCTGTTGCCT (site TTCGGGCCTAG) | 0.0744
ATCGTAGCTTGGGTTCTAACCTGTTGCCA (site ACCCTAGCTTG) | 0.497
ATCGTAGCTTGGGTTCTAACCTGTTGCCA (site ATCGTAGCTTG) | 0.228

Sequence | recombinant barcode read abundance (log10)
ATCGTTCCTTGGGTTCTAACCTGTTGCGT (site ACCGGTCCTAC) | 0.0508
ATCGTTCCTTGGGTTCTAACCTGTTGCGT (site ATCGTTCCTAC) | 0.411
ATCTTACCTTGGGTTCTAACCTGTTGCCT (site ATCTTAACTAG) | 0.069
ATCTTACCTTGGGTTCTAACCTGTTGCCT (site ATCTTACCTAG) | 0.681
ATCTTACCTTGGGTTCTAACCTGTTGCCT (site ATCTTAGCTAG) | 0.0332
ATCTTACCTTGGGTTCTAACCTGTTGCCT (site ATCTTATCTAG) | 0.109
ATGAAGCCTTGGGTTCTAACCTGTTGCCT (site ATGAAGCCTAG) | 1.87
ATGAAGCCTTGGGTTCTAACCTGTTGCCT (site CTGAAGCCTAG) | 0.053
ATGAAGCCTTGGGTTCTAACCTGTTGCCT (site GTGAAGCCTAG) | 0.177
ATGAAGCCTTGGGTTCTAACCTGTTGCCT (site TTGAAGCCTAG) | 0.503
ATGAGCTCTTGGGTTCTAACCTGTTGCTA (site ATGAGCTCTTA) | 1.12
ATGAGCTCTTGGGTTCTAACCTGTTGCTA (site ATGAGGTCTGA) | 0.0495
ATGAGTCCTTGGGTTCTAACCTGTTGCAA (site ATGAGTCCTTT) | 1.25
ATGAGTCCTTGGGTTCTAACCTGTTGCAA (site TGAGAGACTAC) | 0.0172
ATGATACCTTGGGTTCTAACCTGTTGCCT (site AAGATACCTAG) | 0.157
ATGATACCTTGGGTTCTAACCTGTTGCCT (site ATGATACCTAG) | 1.84
ATGCAAACTTGGGTTCTAACCTGTTGCCT (site ATGCAAACTAG) | 1.31
ATGCAAACTTGGGTTCTAACCTGTTGCCT (site ATGCAACCTAG) | 0.0759
ATGCAAACTTGGGTTCTAACCTGTTGCCT (site ATGCAAGCTAG) | 0.653
ATGCAAACTTGGGTTCTAACCTGTTGCCT (site ATGCAATCTAG) | 0.151

Sequence | recombinant barcode read abundance (log10)
ATGCACGCTTGGGTTCTAACCTGTTGCCT (site ATGCACGCTAG) | 1.81
ATGCACGCTTGGGTTCTAACCTGTTGCCT (site TATATGACTCC) | 0.036
ATGCCAACTTGGGTTCTAACCTGTTGCCT (site ATGCCAACTAG) | 0.327
ATGCCAACTTGGGTTCTAACCTGTTGCCT (site ATGCCCACTAG) | 0.059
ATGCCAACTTGGGTTCTAACCTGTTGCCT (site ATGCCGACTAG) | 0.204
ATGCCAACTTGGGTTCTAACCTGTTGCCT (site ATGCCTACTAG) | 0.00977
ATGCCCTCTTGGGTTCTAACCTGTTGCCT (site ATGACCTCTAG) | 0.688
ATGCCCTCTTGGGTTCTAACCTGTTGCCT (site ATGCCCTCTAG) | 2.07
ATGCCCTCTTGGGTTCTAACCTGTTGCCT (site ATGGCCTCTAG) | 0.0962
ATGCCCTCTTGGGTTCTAACCTGTTGCCT (site ATGTCCTCTAG) | 0.0521
ATGCCTACTTGGGTTCTAACCTGTTGCCT (site ATGCCAACTAG) | 0.0174
ATGCCTACTTGGGTTCTAACCTGTTGCCT (site ATGCCCACTAG) | 0.0532
ATGCCTACTTGGGTTCTAACCTGTTGCCT (site ATGCCGACTAG) | 0.0715
ATGCCTACTTGGGTTCTAACCTGTTGCCT (site ATGCCTACTAG) | 0.337
ATGCCTCCTTGGGTTCTAACCTGTTGCTT (site ATGCCTCCTAA) | 0.165
ATGCCTCCTTGGGTTCTAACCTGTTGCTT (site GAAGGAGCTCT) | 0.07
ATGCGTTCTTGGGTTCTAACCTGTTGCCT (site AGGTGTTCTAG) | 0.203
ATGCGTTCTTGGGTTCTAACCTGTTGCCT (site ATGCGTTCTAG) | 1.73
ATGCTTGCTTGGGTTCTAACCTGTTGCCA (site ATGCTTGCTTG) | 0.187
